In patent US6906205B2, “Spiro and dispiro 1,2,4-trioxolane antimalarials” (Medicines for Malaria Venture MMV, priority 2002, dated 2005):
In brackets after ≈: the same amount, converted by molar mass.

Columns and labels:
[1] = tested on: P. falciparum NF54 strain (sensitive to standard antimalarials); assay: semiautomated microdilution assay, [3H]-hypoxanthine incorporation, NF54 strain; assay type: cell-based, Plasmodium falciparum; conditions: NF54 strain, 72 h incubation
In short: (§1)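 Intraerythrocytic stages from unsynchronised stock cultures are exposed to test compounds in a semiautomated microdilution format, and fifty percent inhibitory concentrations are then fitted by logit regression.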

[2] = tested on: Schistosoma mansoni adult schistosomes (49-day-old); assay: effect on adult schistosomes (49-day-old) in mice; assay type: in vivo; conditions: for % reduction of adult worms growth at day 49 after per os application of 400 mg/kg, TWR (%) / adult worms at day 49, per os 400 mg/kg, DEAD WORM (%): single 400 mg/kg per os
Protocol: Mice were infected with 100 Schistosoma mansoni cercariae […]. Each group was treated per os with OZ compounds at single doses of 200, 400, and 600 mg/kg. […] All groups were killed 4 weeks after treatment and the liver and intestine were removed and separated. The liver and intestine were compressed and alive male and female worms could be seen and counted.

[3] = tested on: P. falciparum K1 strain (Thailand resistant to chloroquine); assay: semiautomated microdilution assay, [3H]-hypoxanthine incorporation, K1 strain; assay type: cell-based, Plasmodium falciparum; conditions: K1 strain, 72 h incubation
In short: as §1

[4] = tested on: ANKA strain of P. berghei; assay: single dose STI in vivo screen in infected mice; set-up: species or system Plasmodium berghei; conditions: for Activity (%) po / Survival (days) po: single 10 mg/kg po in 3% ethanol and 7% Tween 80; for Activity (%) sc / Survival (days) sc: single 10 mg/kg sc in 3% ethanol and 7% Tween 80; for Survival (days) 10 mg/kg SSV po: single 10 mg/kg po in SSV
In short: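 Groups of 3-5 Moro SPF or NMRI mice infected with the ANKA strain of P. berghei received a single dose of trioxolane on day one post-infection. The compound was given in 3% ethanol and 7% Tween 80 or in SSV (0.5% w/v CMC, 0.5% v/v benzyl alcohol, 0.4% v/v Tween 80, 0.9% w/v sodium chloride in water). Antimalarial activity was scored as percent reduction in parasitemia on day three and as survival time versus untreated controls. Survival to day 30 counted as cure.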

[5] = tested on: Schistosoma mansoni 21-day-old schistosomules; assay: effect on 21-day-old schistosomules in mice; assay type: in vivo; conditions: single 200 mg/kg per os, female mice
Protocol: All groups were killed 4 weeks after treatment and the liver and intestine were removed and separated. The liver and intestine were compressed and alive male and female worms could be seen and counted. The effect of the compounds was evaluated by mean total and female worm burden.

[6] = percent reduction in parasitemia day 3 post-infection, mice
[7] = percent reduction in parasitemia day 3 post-infection, mice, 10 mg/kg
[8] = untreated control 5.6 ± 0.3, 10 mg/kg
[9] = percent reduction in parasitemia day 3 post-infection, single 3 mg/kg po in SSV

| SMILES | IC50 (ng/ml) NF54 [1] | % reduction of adult worms growth at day 49 after per os application of 400 mg/kg, TWR (%) [2] | adult worms at day 49, per os 400 mg/kg, DEAD WORM (%) [2] | IC50 (ng/ml) K1 [3] | % reduction of schistosomule growth at day 21 after per os application of 200 mg/kg, FWR (%) [5] | % reduction of schistosomule growth at day 21 after per os application of 200 mg/kg, TWR (%) [5] | Activity (%) 3 mg/kg SSV po [4, 9] | Survival (days) 10 mg/kg SSV po [4] | also measured |
| --- | --- | --- | --- | --- | --- | --- | --- | --- | --- |
| CC1(C)COC2(CCC3(CC2)OOC2(CC(C)(C)CC(C)(C)C2)O3)OC1 [OZ36] | 62 ng/mL (≈ 168 nM) | 0/0% | 0/0% | 24 ng/mL (≈ 65.1 nM) | 12% | 16% |  |  | Activity (%) po [4, 6]: 0/NA/0%; Activity (%) sc [4, 6]: 0/NA/0%; Survival (days) po ([4]; untreated control 5.6 ± 0.3): 5.7/NA/5.7 days; Survival (days) sc ([4]; untreated control 5.6 ± 0.3): 5.7/NA/5.7 days |
| O=C(O)C1CCC2(CC1)OOC1(O2)C2CC3CC(C2)CC1C3 (centres unmarked) [OZ71] | 3.7 ng/mL (≈ 12 nM) | 0% | 16% | 4.5 ng/mL (≈ 14.6 nM) | 85% | 91% |  |  | Activity (%) po [4, 7]: 98%; Activity (%) sc [4, 7]: 97%; Activity (%) SSVpo ([4]; percent reduction in parasitemia day 3 post-infection, single po dose in standard suspending vehicle (SSV), mice): 98%; Survival (days) po [4, 8]: 7.3 days; Survival (days) sc [4, 8]: 8.3 days; Survival (days) SSVpo ([4]; single po dose in SSV, untreated control 5.6 ± 0.3): 6.7 days |
| C1CC2(CCN1)OOC1(O2)C2CC3CC(C2)CC1C3.Cl (centres unmarked) [OZ80] | 0.34 ng/mL |  |  | 0.15 ng/mL | 75% | 79% |  |  | % reduction of adult worms growth at day 49 after per os application of 200 mg/kg, TWR (%) ([2]; single 200 mg/kg per os): 0%; adult worms at day 49, per os 200 mg/kg, DEAD WORM (%) ([2]; single 200 mg/kg per os): 3%; Activity (%) po [4, 6]: 59%; Activity (%) sc [4, 6]: 84%; Survival (days) po ([4]; untreated control 5.6 ± 0.3): 6.3 days; Survival (days) sc ([4]; untreated control 5.6 ± 0.3): 7.7 days |
| CC(C)(N)C(=O)NC[C@H]1CC[C@]2(CC1)OOC1(O2)C2CC3CC(C2)CC1C3 (some centres unmarked) [OZ281] | 0.30 ng/mL (≈ 0.793 nM) | 12% | 15% | 0.50 ng/mL (≈ 1.32 nM) | 90% | 91% | 96% | 8.7 days | Survival (days) 3 mg/kg SSV po ([4]; single 3 mg/kg po in SSV): 10.2 days |
| O=C1CN(C[C@H]2CC[C@]3(CC2)OOC2(O3)C3CC4CC(C3)CC2C4)CCN1 (some centres unmarked) [OZ285] | 1.8 ng/mL (≈ 4.78 nM) | 17% | 22% | 1.3 ng/mL (≈ 3.45 nM) | 85% | 86% | 72% | 8.7 days |  |
| Oc1ccc([C@H]2CC[C@]3(CC2)OOC2(O3)C3CC4CC(C3)CC2C4)cc1 (some centres unmarked) [OZ288] | 2.7 ng/mL (≈ 7.57 nM) | 52% | 45% | 1.7 ng/mL (≈ 4.77 nM) | 96% | 95% | 82% | 11.0 days |  |
| O=C1CN(C(=O)C[C@H]2CC[C@]3(CC2)OO[C@]2(O3)C3CC4CC(C3)CC2C4)CCN1 [OZ296] | 0.89 ng/mL (≈ 2.2 nM) | 1% | 13% | 0.60 ng/mL (≈ 1.48 nM) | 85% | 85% | 90% | 10.0 days |  |
